The record followed here is patent US9149475B2, “Protein kinase C inhibitors and uses thereof” (Rigel Pharmaceuticals, Inc., priority 2009, dated 2015).

By IC50 is commonly meant the midpoint of a concentration-inhibition curve.

In the test the test system is Human primary T cells. Nature of the test: IL-2 ELISA, human primary T cell, anti-CD3+CD28+ (whole cell assay). Type of test: cell-based. The settings on record: Homo sapiens, T-cell, 24 h, human primary T cells stimulated with anti-CD3 + anti-CD28, 24 hours. The protocol:
(§1) Human primary T cells were prepared as follows. Whole blood was obtained from a healthy volunteer, mixed 1:1 with PBS, layered on to Ficoll Hypaque (Amersham Pharmacia Biotech, Piscataway, N.J., Catalog #17-1440-03) in 2:1 blood/PBS:ficoll ratio and centrifuged for 30 minutes at 4° C. at 1750 rpm. The cells at the serum:ficoll interface were recovered and washed twice with 5 volumes of PBS. These freshly isolated human peripheral blood mononuclear cells were cultured in Yssel's medium containing 40 U/mL IL2 in a flask pre-coated with 1 μg/mL αCD3 and 5 μg/mL αCD28 (Anti-Human CD3, BD Pharmingen Catalog #555336, Anti-Human CD28, Beckman Coulter Catalog #IM1376). The cells were stimulated for 3-4 days, then transferred to a fresh flask and maintained in RPMI (RPMI-1640 with L-Glutamine; Mediatech, Inc., Herndon Va., cat. #10-040-CM) with 10% FBS and 40 U/mL IL-2. The primary T-cells were then washed twice with PBS to remove the IL-2.
Human primary T cells (100,000 cells per well) were pre-incubated with or without test compound in Yssel's medium for 1 hr at 37° C. Cells were then stimulated by transferring them to round-bottom 96-well plates pre-coated with 1 μg/ml μCD3 and 5 μg/ml μCD28. For counter assay, cells were instead stimulated by adding 8× stock solutions of PMA and ionomycin in Yssels (for final concentrations of 0.5 ng/ml PMA and 0.1 μM ionomycin, both from Calbiochem). Cells were incubated at 37° C. for 24 hours before 100 μL supernatants were harvested for quantification of IL-2 by ELISA using Human IL-2 Duoset ELISA Kit from R and D Systems, Cat. #DY202E.
as §1, with “Human primary T cell isolation and culture: Human primary” for “Human primary”, “for 30 min at 4°” for “for 30 minutes at 4°”, “at the serum: ficoll interface were” for “at the serum:ficoll interface were”
Primary T cell stimulation and IL2 ELISA: Human primary T cells (100,000 cells per well) were pre-incubated with or without test compound in Yssel's medium for 1 hr at 37° C. Cells were then stimulated by transferring them to round-bottom 96-well plates pre-coated with 1 μg/ml αCD3 and 5 μg/ml αCD28. For counter assay, cells were instead stimulated by adding 8× stock solutions of PMA and ionomycin in Yssels (for final concentrations of 0.5 ng/ml PMA and 0.1 μM ionomycin, both from Calbiochem). Cells were incubated at 37° C. for 24 hours before 100 μL supernatants were harvested for quantification of IL-2 by ELISA using Human IL-2 Duoset ELISA Kit from R and D Systems, Cat. #DY202E.
(In general: In an ELISA, binding on a coated surface is turned into a signal by an enzyme label.)
Turning to `CN1C(C)(C)CC(Nc2nc(Nc3ccc(Oc4cccnc4)c(OC(F)F)c3)ncc2F)CC1(C)C` [Compound I-44, N2-(3-(difluoromethoxy)-4-(pyridin-3-yloxy)phenyl)-5-fluoro-N4-(1,2,2,6,6-pentamethylpiperidin-4-yl)pyrimidine-2,4-diamine], the concentration for half-maximal inhibition (IC50) was in the range of 250 to 500 nM.

For the compound `CC1(C)CC(Nc2nc(Nc3ccc(Oc4cccnc4)c(OC(F)F)c3)ncc2F)CC(C)(C)N1` [Compound I-45, N2-(3-(difluoromethoxy)-4-(pyridin-3-yloxy)phenyl)-5-fluoro-N4-(2,2,6,6-tetramethylpiperidin-4-yl)pyrimidine-2,4-diamine], the IC50 lay within 250 to 500 nM.

As to `CN1C(C)(C)CC(Nc2nc(Nc3ccc(OCCN4CCCC4)c(OC(F)F)c3)ncc2F)CC1(C)C` [Compound I-46, N2-(4-(2-(pyrrolidin-1-yl)ethoxy)-3-(difluoromethoxy)phenyl)-5-fluoro-N4-(1,2,2,6,6-pentamethylpiperidin-4-yl)pyrimidine-2,4-diamine], the half-maximal inhibitory concentration (IC50) is less than 250 nM.

Regarding `CC1(C)CC(Nc2nc(Nc3ccc(OCCCN4CCOCC4)c(OC(F)F)c3)ncc2F)CC(C)(C)N1` [Compound I-47, N2-(4-(3-morpholinopropoxy)-3-(difluoromethoxy)phenyl)-5-fluoro-N4-(2,2,6,6-tetramethylpiperidin-4-yl)pyrimidine-2,4-diamine], the IC50 is 500 to 1000 nM.

Regarding `CN1C(C)(C)CC(Nc2nc(Nc3ccc(OCCCN4CCOCC4)c(OC(F)F)c3)ncc2F)CC1(C)C` [Compound I-48, N2-(4-(3-morpholinopropoxy)-3-(difluoromethoxy)phenyl)-5-fluoro-N4-(1,2,2,6,6-pentamethylpiperidin-4-yl)pyrimidine-2,4-diamine], the 50% inhibitory concentration (IC50) is less than 250 nM.

Take `CN1C(C)(C)CC(Nc2nc(Nc3cc(OCCCn4cccc4)cc(C(F)(F)F)c3)ncc2F)CC1(C)C` [Compound I-49, N2-(3-(3-(1H-pyrrol-1-yl)propoxy)-5-(trifluoromethyl)phenyl)-5-fluoro-N4-(1,2,2,6,6-pentamethylpiperidin-4-yl)pyrimidine-2,4-diamine]: the IC50 lay in the range of 500 to 1000 nM.

Take `CC1(C)CC(Nc2nc(Nc3ccc(OCCN4CCNC4=O)c(OC(F)F)c3)ncc2F)CC(C)(C)N1` [Compound I-50, 1-(2-(4-(4-(2,2,6,6-tetramethylpiperidin-4-ylamino)-5-fluoropyrimidin-2-ylamino)-2-(difluoromethoxy)phenoxy)ethyl)imidazolidin-2-one]: the IC50 was more than 1000 nM.

Take `CN1C(C)(C)CC(Nc2nc(Nc3ccc(OCCN4CCNC4=O)c(OC(F)F)c3)ncc2F)CC1(C)C` [Compound I-51, 1-(2-(4-(4-(1,2,2,6,6-pentamethylpiperidin-4-ylamino)-5-fluoropyrimidin-2-ylamino)-2-(difluoromethoxy)phenoxy)ethyl)imidazolidin-2-one]: the IC50 was in the range of 500 to 1000 nM.

Take `CN1C(C)(C)CC(Nc2nc(Nc3ccc(Oc4cccnc4)c(OC(F)F)c3)ncc2C#N)CC1(C)C` [Compound I-52, 4-(1,2,2,6,6-pentamethylpiperidin-4-ylamino)-2-(3-(difluoromethoxy)-4-(pyridin-3-yloxy)phenylamino)pyrimidine-5-carbonitrile]: the IC50 is less than 250 nM.

With `CN1C(C)(C)CC(Nc2nc(Nc3ccc(Oc4ccncc4)c(OC(F)F)c3)ncc2C#N)CC1(C)C` [Compound I-53, 4-(1,2,2,6,6-pentamethylpiperidin-4-ylamino)-2-(3-(difluoromethoxy)-4-(pyridin-4-yloxy)phenylamino)pyrimidine-5-carbonitrile], the IC50 was more than 1000 nM.

Regarding `CN1C(C)(C)CC(Nc2nc(Nc3ccc(OCCn4cncn4)c(OC(F)F)c3)ncc2C#N)CC1(C)C` [Compound I-54, 4-(1,2,2,6,6-pentamethylpiperidin-4-ylamino)-2-(4-(2-(1H-1,2,4-triazol-1-yl)ethoxy)-3-(difluoromethoxy)phenylamino)pyrimidine-5-carbonitrile], the 50% inhibitory concentration (IC50) lay in the range of 500 to 1000 nM.

In the case of `CN1C(C)(C)CC(Nc2nc(Nc3ccc(OCCn4ccnn4)c(OC(F)F)c3)ncc2C#N)CC1(C)C` [Compound I-55, 4-(1,2,2,6,6-pentamethylpiperidin-4-ylamino)-2-(4-(2-(1H-1,2,3-triazol-1-yl)ethoxy)-3-(difluoromethoxy)phenylamino)pyrimidine-5-carbonitrile], the IC50 is 250 to 500 nM.

Turning to `CN1C(C)(C)CC(Nc2nc(Nc3ccc(OCCN4CCCC4=O)c(C(F)(F)F)c3)ncc2F)CC1(C)C` [Compound I-56, 1-(2-(4-(4-(1,2,2,6,6-pentamethylpiperidin-4-ylamino)-5-fluoropyrimidin-2-ylamino)-2-(trifluoromethyl)phenoxy)ethyl)pyrrolidin-2-one], the IC50 lay within 500 to 1000 nM.

For the compound `CC1(C)CC(Nc2nc(Nc3ccc(OCCN4CCCC4=O)c(C(F)(F)F)c3)ncc2F)CC(C)(C)N1` [Compound I-57, 1-(2-(4-(4-(2,2,6,6-tetramethylpiperidin-4-ylamino)-5-fluoropyrimidin-2-ylamino)-2-(trifluoromethyl)phenoxy)ethyl)pyrrolidin-2-one], the IC50 was more than 1000 nM.

`CC1(C)CC(Nc2nc(Nc3ccc(Oc4ccncc4)c(OC(F)F)c3)ncc2C#N)CC(C)(C)N1` [Compound I-58, 4-(2,2,6,6-tetramethylpiperidin-4-ylamino)-2-(3-(difluoromethoxy)-4-(pyridin-4-yloxy)phenylamino)pyrimidine-5-carbonitrile]: the IC50 lay within 500 to 1000 nM.

Turning to `CC1(C)CC(Nc2nc(Nc3ccc(Oc4cccnc4)c(C(F)(F)F)c3)ncc2F)CC(C)(C)N1` [Compound I-59, 5-fluoro-N2-(3-(trifluoromethyl)-4-(pyridin-3-yloxy)phenyl)-N4-(2,2,6,6-tetramethylpiperidin-4-yl)pyrimidine-2,4-diamine], the IC50 is more than 1000 nM.

Turning to `CC1(C)CC(Nc2nc(Nc3ccc(OCCN4CCCC4)c(OC(F)F)c3)ncc2F)CC(C)(C)N1` [Compound I-60, N2-(4-(2-(pyrrolidin-1-yl)ethoxy)-3-(difluoromethoxy)phenyl)-5-fluoro-N4-(2,2,6,6-tetramethylpiperidin-4-yl)pyrimidine-2,4-diamine], the IC50 was in the range of 500 to 1000 nM.

Regarding `CN1C(C)(C)CC(Nc2nc(Nc3ccc(Oc4cccnc4)c(C(F)(F)F)c3)ncc2F)CC1(C)C` [Compound I-61, 5-fluoro-N2-(3-(trifluoromethyl)-4-(pyridin-3-yloxy)phenyl)-N4-(1,2,2,6,6-pentamethylpiperidin-4-yl)pyrimidine-2,4-diamine], the IC50 was 500 to 1000 nM.

For `CN1C(C)(C)CC(Nc2nc(Nc3ccc(Oc4ccncc4)c(C(F)(F)F)c3)ncc2F)CC1(C)C` [Compound I-62, 5-fluoro-N2-(3-(trifluoromethyl)-4-(pyridin-4-yloxy)phenyl)-N4-(1,2,2,6,6-pentamethylpiperidin-4-yl)pyrimidine-2,4-diamine], the IC50 was more than 1000 nM.

For `CC1(C)CC(Nc2nc(Nc3ccc(-c4cccnc4)c(OC(F)F)c3)ncc2F)CC(C)(C)N1` [Compound I-63, N2-(3-(difluoromethoxy)-4-(pyridin-3-yl)phenyl)-5-fluoro-N4-(2,2,6,6-tetramethylpiperidin-4-yl)pyrimidine-2,4-diamine], the half-maximal inhibitory concentration (IC50) is 250 to 500 nM.

As for `CN1C(C)(C)CC(Nc2nc(Nc3ccc(-c4cccnc4)c(OC(F)F)c3)ncc2F)CC1(C)C` [Compound I-64, N2-(3-(difluoromethoxy)-4-(pyridin-3-yl)phenyl)-5-fluoro-N4-(1,2,2,6,6-pentamethylpiperidin-4-yl)pyrimidine-2,4-diamine], the IC50 was less than 250 nM.

Turning to `CC1(C)CC(Nc2nc(Nc3ccc(OCCN4CCOCC4)c(C(F)(F)F)c3)ncc2F)CC(C)(C)N1` [Compound I-65, N2-(4-(2-morpholinoethoxy)-3-(trifluoromethyl)phenyl)-5-fluoro-N4-(2,2,6,6-tetramethylpiperidin-4-yl)pyrimidine-2,4-diamine], the concentration for half-maximal inhibition (IC50) lay within 500 to 1000 nM.
